For data set [1], the system named is glucose transporter type 1-deficiency (G1D) syndrome mouse model. In words: Time until anesthetic induction (isoflurane) in G1D mice. Format: in vivo. The settings on record: for time required before anesthetic induction: relative to control mice fed a standard diet, p=0.0003 (KD), p=0.0136 (KS), p=0.0003 (KE), FIG. 4. The method, then:
Animals were kept in groups of 2-5 mice under standard laboratory conditions (12 h:12 h light-dark cycle) in climate-controlled rooms at 22.0±2.0° C. Animal treatment and measuring procedures were performed in accordance with the University of South Florida Institutional Animal Care and Use Committee (IACUC) guidelines (Protocol#00000457). All efforts were made to reduce the number of animals used. The rodents were put under anesthesia once a week to perform blood draws.
All data are presented as the mean±standard error of the mean (SEM). The effects of compositions comprising ketone supplements on latency to anesthetic induction, as well as on blood βHB levels, were compared to control and/or baseline levels. Data analysis was performed using GRAPHPAD PRISM v6.0a. Results were considered significant when *p<0.05, **p<0.005, ***p<0.0005. Significance was determined by unpaired t-test.
G1D mice between 3-5 months old were chronically fed a standard rodent chow diet (SD), ketogenic diet (KD) (Table 1), standard rodent chow diet mixed with 20% ketone salt (βHB mineral salt) supplementation (SD+KS), or standard diet mixed with 20% ketone ester (1,3 butanediol-acetoacetate diester) supplementation (SD+KE) for 10 weeks. After 10 weeks, anesthesia was induced in an anesthesia chamber with isoflurane gas mixed with air, and the time until anesthetic induction was measured by a blinded observer. Ketone body levels in the blood were measured immediately after induction of anesthesia with a PRECISION XTRA® blood glucose and ketone monitoring kit.

For another data set, the system named is Sprague-Dawley rats. The data set can be described thus: Time until anesthetic induction (isoflurane) in Sprague-Dawley rats. In kind it is in vivo, rat. To be noted: 7 days feeding/oral gavage, relative to standard diet fed controls, p=1.32E−6 (ketone diet), p=0.336 (ketone salt), FIG. 1. The method, then:
Animals were kept in pairs of 2 rats under standard laboratory conditions (12 h:12 h light-dark cycle) in climate-controlled rooms at 22.0±2.0° C. Animal treatment and measuring procedures were performed in accordance with the University of South Florida Institutional Animal Care and Use Committee (IACUC) guidelines (Protocol#00001749). All efforts were made to reduce the number of animals used.
(§1) All data are presented as the mean±standard error of the mean (SEM). The effects of compositions comprising ketone supplements on latency to anesthetic induction, as well as on blood βHB levels, were compared to control and/or baseline levels. Data analysis was performed using GRAPHPAD PRISM® v6.0a. Results were considered significant when *p<0.05, **p<0.005, ***p<0.0005. Significance was determined by unpaired t-test.
(§2) Sprague-Dawley rats were fed a standard diet, a ketone diet, or a standard diet supplemented with an oral gavage of the ketone salt βHB mineral salt for 7 days. After 7 days, anesthesia was induced in an anesthesia chamber with isoflurane gas mixed with air, and the time until anesthetic induction was measured by a blinded observer.

Data set [2] can be described thus: Blood levels of βHB after anesthetic induction in Sprague-Dawley rats. In kind it is in vivo, rat. To be noted: 7 days, relative to baseline levels, p=0.0001 (ketone diet), p=2.21E−05 (ketone salt), FIG. 2. The method, then:
as §1, §2

The values below come from patent US20170266147A1, “METHODS OF INCREASING LATENCY OF ANESTHETIC INDUCTION USING KETONE SUPPLEMENTATION” (priority 2016, published 2017).

With `CC(=O)CC(=O)OCCC(C)OC(=O)CC(C)=O` (stereo not drawn) [ketone ester, 1,3 butanediol-acetoacetate diester], the “time required before anesthetic induction” value in data set [1] (10 weeks) was “significant increases”. Besides, the “number of seconds required before anesthetic induction” value in data set [1] (chronic 10 weeks, 20% in standard diet, relative to baseline levels, p=0.0035, FIG. 3) is on record as “significant increase”.

For βHB mineral salt [ketone salt], in the data set with Sprague-Dawley rats, the “number of seconds required before anesthetic induction” value is listed as “significant increase”. For the same compound, the “blood levels of βHB after anesthetic induction” value in data set [2] was “significant increase”. The “delay in anesthetic induction normalized to body weight” value in data set [1] (10 weeks, relative to animals fed a standard diet, p=0.0048 (KD), p=0.0338 (KS), FIG. 5) is “remained significant”. In addition, the “time required before anesthetic induction” value in data set [1] (10 weeks) is reported as “significant increases”.
